In patent publication US20240252650A1, “LIPID COMPOUNDS AND LIPID NANOPARTICLE COMPOSITIONS” (SUZHOU ABOGEN BIOSCIENCES CO., LTD., priority 2021, published 2024):

Assays:
[1] = Lipid nanoparticle size and polydispersity by dynamic light scattering (Malvern Zetasizer Nano ZS); assay type: physicochemical
Method: (§1) Briefly, a cationic lipid provided herein, DSPC, cholesterol, and PEG-lipid were solubilized in ethanol at a molar ratio of 50:10:38.5:1.5, and mRNA were diluted in 10 to 50 mM citrate buffer, pH=4. The LNPs were prepared at a total lipid to mRNA weight ratio of approximately 10:1 to 30:1 by mixing the ethanolic lipid solution with the aqueous mRNA solution at a volume ratio of 1:3 using a microfluidic apparatus, total flow rate ranging from 9-30 mL/min. Ethanol were thereby removed and replaced by DPBS using dialysis. Finally, the lipid nanoparticles were filtered through a 0.2 μm sterile filter.
(§2) Lipid nanoparticle size were determined by dynamic light scattering using a Malvern Zetasizer Nano ZS (Malvern UK) using a 173° backscatter detection mode. The encapsulation efficiency of lipid nanoparticles were determined using a Quant-it Ribogreen RNA quantification assay kit (Thermo Fisher Scientific, UK) according to the manufacturer's instructions.

[2] = Encapsulation efficiency of lipid nanoparticles (Quant-it Ribogreen RNA quantification assay); assay type: physicochemical
Method: as §1, §2

[3] = Apparent pKa of LNP formulations by TNS fluorescence assay; assay type: physicochemical; conditions: LNP cationic lipid/DSPC/cholesterol/DMG-PEG 50/10/38.5/1.5 mol %
Method: As reported in literature, the apparent pKa of LNP formulations correlates with the delivery efficiency of LNPs for nucleic acids in vivo. The apparent pKa of each formulation was determined using an assay based on fluorescence of 2-(p-toluidino)-6-napthalene sulfonic acid (TNS). LNP formulations comprising of cationic lipid/DSPC/cholesterol/DMG-PEG (50/10/38.5/1.5 mol %) in PBS were prepared as described above. TNS was prepared as a 300 uM stock solution in distilled water. LNP formulations were diluted to 0.1 mg/ml total lipid in 3 mL of buffered solutions containing 50 mM sodium citrate, 50 mM sodium phosphate, 50 mM sodium borate, and 30 mM sodium chloride where the pH ranged from 3 to 9. An aliquot of the TNS solution was added to give a final concentration of 0.1 mg/ml and following vortex mixing fluorescence intensity was measured at room temperature in a Molecular Devices Spectramax iD3 spectrometer using excitation and mission wavelengths of 325 nm and 435 nm. A sigmoidal best fit analysis was applied to the fluorescence data and the pKa value was measured as the pH giving rise to half-maximal fluorescent intensity.

female Balb/c mice = experiment: Animal study: LNPs encapsulating luciferase mRNA, tail vein injection, organ bioluminescence imaging (IVIS Spectrum CT); assay type: in vivo; conditions: luciferase mRNA LNP, 0.25 mg/kg tail vein; for luciferase expression in bone marrow (in words): 6 h; for bone marrow* Avg Radiance: bone marrow at 6 h; for brain* Avg Radiance: dissected brain at 6 h; for heart* Avg Radiance: dissected heart at 6 h; for kidney* Avg Radiance: dissected kidney at 6 h; for liver* Avg Radiance: dissected liver at 6 h; for lung* Avg Radiance: dissected lung at 6 h; for spleen* Avg Radiance: dissected spleen at 6 h
Method: Lipid nanoparticles comprising certain compounds provided herein encapsulating luciferase encoding (luciferase) mRNA were systemically administered to 6-8 week old female Balb/c mice (Charles River Lab, ZheJiang) at 0.25 mg/kg dose by tail vein injection, and mice blood were sampled at specific time points (e.g., 6 hours) post administration. Optical imaging was performed using the IVIS Spectrum CT device (PerkinElmer Inc., Paris, France). The luminescence level was evaluated by an ROI applied to the injection site zone (Living Image software, PerkinElmer Inc., Paris, France).
Radiance of heart, liver, spleen, lung, kidney, brain and bone marrow were taken at 6 h. Dissected organs were placed on a black sheet and imaged with IVIS Spectrum CT (PerkinElmer, Hopkinton, MA). To quantify bioluminescence emission signal, identical regions of interest (ROI) were positioned to encircle each organ region, the imaging signal was quantitated as average radiance (photons/s/cm2/steradian).

[4] = LNP: cationic lipid/DSPC/cholesterol/PEG-lipid 50:10:38.5:1.5, mRNA, table of Example 15
[5] = LNP encapsulating hEPO mRNA, table of Example 16

| SMILES | polydispersity [1, 4] | size (nm) [1, 4] | Encapsulation Efficiency [2, 4] | Apparant Pka ([3]; table of Example 15) | polydispersity [1, 5] | size (nm) [1, 5] | Encapsulation Efficiency [2, 5] | Apparant Pka ([3]; table of Example 16) | luciferase expression in bone marrow (in words) (female Balb/c mice) | bone marrow* Avg Radiance (female Balb/c mice) | brain* Avg Radiance (female Balb/c mice) | heart* Avg Radiance (female Balb/c mice) | kidney* Avg Radiance (female Balb/c mice) | liver* Avg Radiance (female Balb/c mice) | lung* Avg Radiance (female Balb/c mice) | spleen* Avg Radiance (female Balb/c mice) |
| --- | --- | --- | --- | --- | --- | --- | --- | --- | --- | --- | --- | --- | --- | --- | --- | --- |
| CCCCCCCC(=O)OCC(CCCC(=O)OCC(COC(=O)CCCCCCC)COC(=O)CCCCCCN(CCO)C1CCC1)COC(=O)CCCCCCC (centres unmarked) [Compound 78] | 0.043 | 132 nm | 87.30% | 6.864 | – | – | – | – | mild expression | 0.51 E+04 p/s/cm^2/sr | 3.25 E+04 p/s/cm^2/sr | 3.65 E+04 p/s/cm^2/sr | 7.88 E+04 p/s/cm^2/sr | 11.41 E+06 p/s/cm^2/sr | 3.83 E+04 p/s/cm^2/sr | 2.07 E+06 p/s/cm^2/sr |
| C=CCN(CCO)CCCCC(=O)OCC(COC(=O)CCCCCCCCCCCCCCCCC)COC(=O)CCCC(COC(=O)CCCCCCC)COC(=O)CCCCCCC (centres unmarked) [Compound 84] | – | – | – | – | 0.069 | 84.76 nm | 92.56% | 6.597 | – | – | – | – | – | – | – | – |
| CCCCC/C=C\C/C=C\CCCCCCCC(=O)OCC(COC(=O)CCCC(COC(=O)CCCCCCC)COC(=O)CCCCCCC)COC(=O)OCCCN(CCC)CCO (centres unmarked) [Compound 87] | – | – | – | – | 0.034 | 99.16 nm | 93.62% | 6.384 | – | – | – | – | – | – | – | – |
| CCCCCCCC(=O)OCC(CCCC(=O)OCC(COC(=O)CCCC(COC(=O)CCCCCCC)COC(=O)CCCCCCC)COC(=O)OCCN(C)CCO)COC(=O)CCCCCCC [Compound 91] | – | – | – | – | 0.023 | 72.66 nm | 86.02% | 5.811 | – | – | – | – | – | – | – | – |
| CCCCCCCCCCCCCCCCCC(=O)OCC(COC(=O)CCCCN(CCC)CCO)COC(=O)CCC(=O)OCC(COC(=O)CCCCCCC)COC(=O)CCCCCCC (centres unmarked) [Compound 98] | – | – | – | – | 0.207 | 102.92 nm | 83.41% | 7.14 | – | – | – | – | – | – | – | – |
| CCCCCCCCC(CCCCCCCC)COC(=O)CCOCC(COCCC(=O)OCC(CCCCCCCC)CCCCCCCC)COC(=O)CCCCN(CCO)C1CCC1 [Compound 100] | – | – | – | – | 0.02588 | 67.27 nm | 91.54% | 6.535 | – | – | – | – | – | – | – | – |
| CCCCCCCCOC(=O)CCCCCCCC(=O)OCC(COC(=O)CCCCN(CCO)C1CCCCC1)COC(=O)CCCC(COC(=O)CCCCCCC)COC(=O)CCCCCCC (centres unmarked) [Compound 104] | – | – | – | – | 0.02612 | 98.52 nm | 89.87% | 6.707 | – | – | – | – | – | – | – | – |
| CCCCC/C=C\C/C=C\CCCCCCCC(=O)OCC(COC(=O)CCCC(COC(=O)CCCCCCC)COC(=O)CCCCCCC)COC(=O)OCCCN(CCO)CCCC (centres unmarked) [Compound 105] | – | – | – | – | 0.06244 | 80.11 nm | 89.77% | 6.262 | – | – | – | – | – | – | – | – |
| CCCCC/C=C\C/C=C\CCCCCCCC(=O)OCC(COC(=O)CCCC(COC(=O)CCCCCCC)COC(=O)CCCCCCC)COC(=O)OCCCN(CCO)C1CCCCC1 (centres unmarked) [Compound 106] | – | – | – | – | 0.01154 | 77.71 nm | 77.94% | 6.091 | – | – | – | – | – | – | – | – |
| CCCCC/C=C\C/C=C\CCCCCCCC(=O)OCC(COC(=O)CCCC(COC(=O)CCCCCCC)COC(=O)CCCCCCC)OC(=O)CCCCN(CCO)C1CCCCC1 (centres unmarked) [Compound 107] | – | – | – | – | 0.04979 | 66.11 nm | 89.61% | 6.441 | – | – | – | – | – | – | – | – |
| CCCCCCCCCCCCCCCCCC(=O)OCC(COC(=O)CCCC(COC(=O)CCCCCCC)COC(=O)CCCCCCC)OC(=O)CCCCN(CCO)C1CCC1 (centres unmarked) [Compound 114] | 0.206 | 89.95 nm | 87.34% | 7.194 | – | – | – | – | mild expression | 0.2 E+04 p/s/cm^2/sr | 6.01 E+04 p/s/cm^2/sr | 5.49 E+04 p/s/cm^2/sr | 7.63 E+04 p/s/cm^2/sr | 21.27 E+06 p/s/cm^2/sr | 6.22 E+04 p/s/cm^2/sr | 2.7 E+06 p/s/cm^2/sr |

More lines, main results first:

| polydispersity [1, 4] | size (nm) [1, 4] | Encapsulation Efficiency [2, 4] | Apparant Pka ([3]; table of Example 15) | polydispersity [1, 5] | size (nm) [1, 5] | Encapsulation Efficiency [2, 5] | Apparant Pka ([3]; table of Example 16) | SMILES | luciferase expression in bone marrow (in words) (female Balb/c mice) | bone marrow* Avg Radiance (female Balb/c mice) | brain* Avg Radiance (female Balb/c mice) | heart* Avg Radiance (female Balb/c mice) | kidney* Avg Radiance (female Balb/c mice) | liver* Avg Radiance (female Balb/c mice) | lung* Avg Radiance (female Balb/c mice) | spleen* Avg Radiance (female Balb/c mice) |
| --- | --- | --- | --- | --- | --- | --- | --- | --- | --- | --- | --- | --- | --- | --- | --- | --- |
| 0.033 | 71.59 nm | 91.21% | 6.499 | – | – | – | – | CCCCC/C=C\C/C=C\CCCCCCCC(=O)OCC(COC(=O)CCC(OCCCCCCCC)OCCCCCCCC)COC(=O)OCCCN(CCO)C1CCC1 (centres unmarked) [Compound 115] | – | −0.66 E+04 p/s/cm^2/sr | 14.59 E+04 p/s/cm^2/sr | 13.74 E+04 p/s/cm^2/sr | 27.83 E+04 p/s/cm^2/sr | 44.21 E+06 p/s/cm^2/sr | 7.01 E+04 p/s/cm^2/sr | 1.06 E+06 p/s/cm^2/sr |
| 0.049 | 78.48 nm | 92.40% | 6.881 | – | – | – | – | CCCCC/C=C\C/C=C\CCCCCCCC(=O)OCC(COC(=O)CCCCN(CCO)C1CCC1)COC(=O)CCC(OCCCCCCCC)OCCCCCCCC (centres unmarked) [Compound 116] | – | −0.16 E+04 p/s/cm^2/sr | 13.52 E+04 p/s/cm^2/sr | 12.65 E+04 p/s/cm^2/sr | 28.62 E+04 p/s/cm^2/sr | 40.56 E+06 p/s/cm^2/sr | 17.29 E+04 p/s/cm^2/sr | 1.38 E+06 p/s/cm^2/sr |
| 0.078 | 90.89 nm | 90.85% | 7.1 | – | – | – | – | CCCCC/C=C\C/C=C\CCCCCCCC(=O)OCC(COC(=O)CCCCCCC/C=C\C/C=C\CCCCC)COC(=O)CCCCCCCN(CCO)C1CCC1 [Compound 124] | mild expression | 2.2 E+04 p/s/cm^2/sr | 16.34 E+04 p/s/cm^2/sr | 32.73 E+04 p/s/cm^2/sr | 34.36 E+04 p/s/cm^2/sr | 47.09 E+06 p/s/cm^2/sr | 16.04 E+04 p/s/cm^2/sr | 11.21 E+06 p/s/cm^2/sr |
| 0.025 | 83.81 nm | 87.71% | 6.863 | – | – | – | – | CCCCC/C=C\C/C=C\CCCCCCCC(=O)OCC(COC(=O)CCCCN(CCOCCO)C1CCC1)COC(=O)CCCC(COC(=O)CCCCCCC)COC(=O)CCCCCCC (centres unmarked) [Compound 125] | – | −0.94 E+04 p/s/cm^2/sr | 4.61 E+04 p/s/cm^2/sr | 5.27 E+04 p/s/cm^2/sr | 8.4 E+04 p/s/cm^2/sr | 16.61 E+06 p/s/cm^2/sr | 7.67 E+04 p/s/cm^2/sr | 2.24 E+06 p/s/cm^2/sr |
| 0.039 | 71.38 nm | 91.87% | 6.154 | – | – | – | – | CCCCC/C=C\C/C=C\CCCCCCCC(=O)OCC(COC(=O)CCC(OCCCCCCCC)OCCCCCCCC)COC(=O)OCCCN(CCO)C1CCCCC1 (centres unmarked) [Compound 126] | – | −1.44 E+04 p/s/cm^2/sr | 10.48 E+04 p/s/cm^2/sr | 23.71 E+04 p/s/cm^2/sr | 29.29 E+04 p/s/cm^2/sr | 54.3 E+06 p/s/cm^2/sr | 15.58 E+04 p/s/cm^2/sr | 0.73 E+06 p/s/cm^2/sr |
